Assays:
[1] = system: transglutaminase (TGase); test: Measurement of TG (TGase inhibitory activity, monodansyl cadaverine / N,N-dimethylcasein fluorescence, FDSS 3000); format: biochemical
Summary of the method: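 Compound (1 μL of 10 mM stock) added to 0.1 mL reaction: 100 mM HEPES-NaOH pH 7.5, 1 mM CaCl2, 20 μM monodansyl cadaverine, 0.05 mg/mL N,N-dimethylcasein, 5 μg/mL TGase. Rate of fluorescence change at 340 nm measured; DMSO control set to 100; TG50 is the concentration halving activity.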

[2] = system: Truncated N-terminal huntington 150 Q-EGFP-Neuron 2a cells; test: Measurement of x-Fold (polyglutamine aggregation inhibitory activity); format: cell-based
Procedure: In the present invention, the polyglutamine aggregation inhibitory activity (x-Fold) can be measured, for example, by the method described in the Example.
The number of the aggregated cells, and the total number of cells were counted by Array Scan V T1 (manufactured by Cellomics, Pittuburg, USA), and the ratio of the aggregated cells to the total number of cells was determined (x-Fold). […]

[3] = TGase activity with compound (10 mM, 1 μL in 0.1 ml enzyme reaction solution), DMSO control taken as 100
[4] = ratio of aggregated cells to total number of cells, compound 20 μM, 20 hr, almost 1 without compound, smaller = stronger inhibition
[5] = TGase inhibitory activity value, Table 1
[6] = polyglutamine aggregation inhibitory activity, Table 1

Row | Compound | TGase activity remaining (% of DMSO control = 100) [1, 3] | TGase activity remaining (% of DMSO control = 100) ([1]; TGase inhibitory activity value, Table 1, listed as 3003) | TGase activity remaining (% of DMSO control = 100) [1, 5] | TGase activity remaining (% of DMSO control = 100) ([1]; TGase inhibitory activity value, Table 1, listed as 3107) | x-Fold ([2]; polyglutamine aggregation inhibitory activity, Table 1, listed as 3003) | x-Fold [2, 4] | x-Fold [2, 6] | x-Fold ([2]; polyglutamine aggregation inhibitory activity, Table 1, listed as 3107)
1 | Cc1c(Cl)cccc1B(O)c1cccc(Cl)c1C [Example 200, di(3-chloro-2-methylphenyl)borinic acid] | 100 | – | – | – | – | 0.92 | – | –
2 | Cc1ccc(B(O)c2ccc(Oc3ccc(B(O)c4ccc(C)c(Cl)c4)cc3)cc2)cc1Cl [Example 201, 4,4′-di((3-chloro-4-methylphenyl 2-hydroxyboryl)phenyl)ether] | 99 | – | – | – | – | 0.57 | – | –
3 | c1ccc(B(OCc2ccccn2)c2cccc3ccccc23)cc1 [Example 202, phenyl naphthyl 2-pyridylmethylborinate] | 91 | – | 91 | – | – | 0.94 | 0.94 | –
4 | CN(C)CCOB(c1ccccc1)c1cccc2ccccc12 [Example 203, phenyl naphthyl dimethylaminoethylborinate] | 97 | – | 97 | – | – | 0.97 | 0.97 | –
5 | Cc1ccc(B(OC(CN)c2ccccc2)c2ccc(C)c(Cl)c2)cc1Cl (stereo not drawn) [Example 209, di(3-chloro-4-methylphenyl)1-phenyl 2-aminoethylborinate] | 1 | – | 1 | – | – | 0.98 | 0.98 | –
6 | c1ccc(B(OB(c2ccccc2)c2ccccc2)c2ccccc2)cc1 [Example 217, diphenylborinic acid anhydride] | 118 | – | 118 | – | – | 0.94 | 0.94 | –
7 | O=C(OB(c1ccccc1)c1ccccc1)c1ccccn1 [Example 218, diphenyl(picolinate-O,N)borane] | 90 | – | 90 | – | – | 0.97 | 0.97 | –
8 | Nc1ccccc1C(=O)OB(c1ccccc1)c1ccccc1 [Example 219, diphenyl(2-aminophenyl carboxylate-O,N)borane] | 91 | – | 91 | – | – | 0.88 | 0.88 | –

More lines, main results first:

Row | TGase activity remaining (% of DMSO control = 100) [1, 3] | TGase activity remaining (% of DMSO control = 100) ([1]; TGase inhibitory activity value, Table 1, listed as 3003) | TGase activity remaining (% of DMSO control = 100) [1, 5] | TGase activity remaining (% of DMSO control = 100) ([1]; TGase inhibitory activity value, Table 1, listed as 3107) | Compound | x-Fold ([2]; polyglutamine aggregation inhibitory activity, Table 1, listed as 3003) | x-Fold [2, 4] | x-Fold [2, 6] | x-Fold ([2]; polyglutamine aggregation inhibitory activity, Table 1, listed as 3107)
9 | 28 | 28 | – | – | CN(C)CCOB(c1ccccc1)c1ccc(COCc2ccc(B(OCCN(C)C)c3ccccc3)cc2)cc1 [Example 198, bis(4,4′-(phenyldimethylaminoethoxyboryl)benzyl)ether] | 0.8 | 0.8 | – | –
10 | 3 | – | 3 | – | c1ccc(CNCCOB(c2ccccc2)c2cccc(COCc3cccc(B(OCCNCc4ccccc4)c4ccccc4)c3)c2)cc1 [Example 199, bis(3,3′-(phenylbenzylaminoethoxyboryl)benzyl)ether] | – | 0.90 | 0.90 | –
11 | 61 | – | 61 | – | c1ccc(CNCCOB(c2ccccc2)c2cccc3ccccc23)cc1 [Example 204, phenyl naphthyl benzylaminoethylborinate] | – | 0.79 | 0.79 | –
12 | 47 | – | 47 | – | NC(COB(c1ccccc1)c1ccc(COCc2ccc(B(OCC(N)Cc3ccccc3)c3ccccc3)cc2)cc1)Cc1ccccc1 (stereo not drawn) [Example 205, bis(4,4′-(phenyl 2-amino-2-benzylethoxyboryl)benzyl)ether] | – | 0.80 | 0.80 | –
13 | 34 | – | – | 34 | CN(C)CCOB(c1ccccc1)c1cccc(COCc2cccc(B(OCCN(C)C)c3ccccc3)c2)c1 [Example 206, bis(3,3′-(phenyldimethylaminoethoxyboryl)benzyl)ether] | – | 1.14 | – | 1.14
